{"source": "ChEMBL document CHEMBL4699578", "about": "“Next generation quorum sensing inhibitors: Accounts on structure activity relationship studies and biological activities” (Bioorg Med Chem, 2020)", "key": {"Pseudomonas aeruginosa [1]": {"test_system": "Pseudomonas aeruginosa", "assay": "Inhibition of quorum sensing system in Pseudomonas aeruginosa MH602 harboring lasB promoter measured at 250 uM every 30 mins over 22 hrs by fluorescence method relative to control", "details": "time hrs >22"}, "Escherichia coli [2]": {"test_system": "Escherichia coli", "assay": "Inhibition of quorum sensing system in Escherichia coli MT102 at 250 uM measured after 15 hrs by fluorescence method relative to control"}, "Escherichia coli [3]": {"test_system": "Escherichia coli", "assay": "Inhibition of quorum sensing system in Escherichia coli assessed as reduction in biofilm formation at 250 uM incubated for 24 hrs by crystal violet staining based method relative to control"}, "[4]": {"assay": "Inhibition of quorum sensing system in Pseudomonas aeruginosa PAO1 assessed as reduction in pyocyanin production incubated for 8 hrs"}, "[5]": {"assay": "Inhibition of quorum sensing system in Pseudomonas aeruginosa PAO1 assessed as reduction in […] incubated for 18 hrs by congo red staining based assay"}, "[6]": {"test_system": "Vibrio campbellii ATCC BAA-1116", "assay": "Inhibition of quorum sensing system in Vibrio harveyi BB120 assessed as delay time for the onset of bioluminescence at 50 ug/ml measured every 10 mins after 5 min of double orbital stirring during 11 hrs 50 mins by luminescence method", "details": "dose 50.0 µg/ml, time 710.0 min"}, "[7]": {"assay": "Antagonist activity at Vibrio fischeri quorum sensing system in presence of OHHL by bioluminescence method", "set-up": "species or system Aliivibrio fischeri"}, "[8]": {"assay": "Inhibition of LuxR in Escherichia coli Top10 assessed as reduction in GFP production using 3OC6HSL as substrate by fluorescence method"}, "[9]": {"assay": "Inhibition of quorum sensing system in Pseudomonas aeruginosa PAO1"}, "[10]": {"assay": "Inhibition of quorum sensing system in Burkholderia cepacia"}, "[11]": {"assay": "Inhibition of quorum sensing system in Staphylococcus aureus"}, "[12]": {"assay": "Inhibition of quorum sensing system in Proteus mirabilis"}, "[13]": {"assay": "Inhibition of quorum sensing system in Chromobacterium violaceum CV026 assessed as reduction in violacein production incubated for 16 to 18 hrs by spot test method"}, "[14]": {"biological_target": "T1, Transcriptional activator protein LuxR (Aliivibrio fischeri, UniProt P12746)", "T1 sequence (P12746 whole entry)": "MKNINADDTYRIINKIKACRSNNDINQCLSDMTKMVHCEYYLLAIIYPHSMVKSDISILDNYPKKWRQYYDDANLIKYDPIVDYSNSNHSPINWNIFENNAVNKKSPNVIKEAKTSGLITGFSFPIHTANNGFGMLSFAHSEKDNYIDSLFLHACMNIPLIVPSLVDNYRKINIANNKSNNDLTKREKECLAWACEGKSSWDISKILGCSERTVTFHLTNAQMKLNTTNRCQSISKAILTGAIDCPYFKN", "assay": "Antagonist activity at Vibrio fischeri luxR expressed in Escherichia coli NM522 in presence of 3-oxo-C6-HSL"}, "[15]": {"assay": "Inhibition of quorum sensing system in Stenotrophomonas maltophilia"}, "Pseudomonas aeruginosa [16]": {"test_system": "Pseudomonas aeruginosa", "assay": "Inhibition of quorum sensing system in Pseudomonas aeruginosa assessed as reduction in biofilm formation at 250 uM incubated for 24 hrs by crystal violet staining based method relative to control"}, "[17]": {"assay": "Inhibition of quorum sensing system in Pseudomonas aeruginosa"}, "[18]": {"assay": "Inhibition of quorum sensing system in Escherichia coli O157:H7"}, "Pseudomonas aeruginosa [19]": {"test_system": "Pseudomonas aeruginosa", "assay": "Antagonist activity at Pseudomonas aeruginosa PAO-JP2 LasR assessed as reduction in GFP production incubated for 6 hrs in presence of OdDHL by fluorescence method relative to control", "set-up": "scale not given: the % may be the effect or the level left", "details": "filed as antagonist"}, "[20]": {"assay": "Antagonist activity at Pseudomonas aeruginosa PAO-JP2 LasR assessed as reduction in GFP production incubated for 6 hrs in presence of OdDHL by fluorescence method"}}}
{"smiles": "C#CCNC(=O)C(=O)c1cc(F)ccc1NC(=O)CCl", "values": [{"measurement": "inhibition", "setting": "Pseudomonas aeruginosa [1]", "result": 71.5, "unit": "%"}, {"measurement": "inhibition", "setting": "Escherichia coli [2]", "result": 73.5, "unit": "%"}, {"measurement": "inhibition", "setting": "Escherichia coli [3]", "result": 89.5, "unit": "%"}]}
{"smiles": "O=C1c2c(O)cc(O)cc2O[C@H](c2ccc(O)c(O)c2)[C@H]1O", "note": "[(+)-TAXIFOLIN]", "values": [{"measurement": "IC50", "setting": "[4]", "result": 4, "unit": "mM"}, {"measurement": "IC50", "setting": "[5]", "result": 4, "unit": "mM"}]}
{"smiles": "O=C1Cn2nncc2CNC(=O)C(=O)c2ccccc2NC(=O)Cn2nncc2CNC(=O)C(=O)c2ccccc2N1", "values": [{"measurement": "inhibition", "setting": "Pseudomonas aeruginosa [1]", "result": 73.5, "unit": "%"}]}
{"smiles": "COC1=CC(=O)C(O)=C(C[C@]2(C)[C@@H](C)CC[C@]3(C)OC(=O)CCC[C@@H]23)C1=O", "values": [{"measurement": "TIME", "setting": "[6]", "result": 0.667, "unit": "h"}]}
{"smiles": "O=C(N[C@H]1CCOC1=O)OCc1ccc([N+](=O)[O-])cc1", "values": [{"measurement": "IC50", "setting": "[7]", "result": 22, "unit": "µM"}]}
{"smiles": "O=C1C(=O)N(C(=O)CCl)c2ccccc21", "values": [{"measurement": "inhibition", "setting": "Escherichia coli [3]", "result": 87.9, "unit": "%"}]}
{"smiles": "CCOC(=O)/C=C1\\CC(NCc2ccc(C)cc2)C(=O)N1Cc1ccc(C)cc1", "note": "(stereo unspecified)", "values": [{"measurement": "IC50", "setting": "[8]", "result": 50, "unit": "µM"}]}
{"smiles": "COc1cc(/C=C/C(=O)CC(=O)/C=C/c2ccc(O)c(OC)c2)ccc1O", "note": "[CURCUMIN]", "values": [{"measurement": "IC50", "setting": "[9]", "result": 0.003, "unit": "mM"}]}
{"smiles": "O=c1oc2c(O)c(O)cc3c(=O)oc4c(O)c(O)cc1c4c23", "note": "[ELLAGIC ACID]", "values": [{"measurement": "IC50", "setting": "[10]", "result": 132, "unit": "µM"}]}
{"smiles": "O=c1c(O)c(-c2ccc(O)cc2)oc2cc(O)cc(O)c12", "note": "[KAEMPFEROL]", "values": [{"measurement": "IC50", "setting": "[11]", "result": 220, "unit": "µM"}]}
{"smiles": "Oc1ccc(/C=C/c2cc(O)cc(O)c2)cc1", "note": "[RESVERATROL]", "values": [{"measurement": "IC50", "setting": "[12]", "result": 65, "unit": "µM"}]}
{"smiles": "O=C(Nc1ccc(S(=O)(=O)N[C@H]2CCOC2=O)cc1)c1sccc1Cl", "values": [{"measurement": "IC50", "setting": "[13]", "result": 6.19, "unit": "µM"}]}
{"smiles": "Nc1ccccc1[N+](=O)[O-]", "note": "[2-NITROANILINE]", "values": [{"measurement": "IC50", "setting": "[14]", "result": 85, "unit": "µM"}]}
{"smiles": "C=C1CCC[C@H]2[C@](C)(CC3=C(O)C(=O)C=C(O)C3=O)[C@@H](C)CC[C@]12C", "values": [{"measurement": "TIME", "setting": "[6]", "result": 2.5, "unit": "h"}]}
{"smiles": "O=C(/C=C/c1ccc(O)c(O)c1)O[C@@H]1C[C@](O)(C(=O)O)C[C@@H](O)[C@H]1O", "note": "[CHLOROGENIC ACID]", "values": [{"measurement": "IC50", "setting": "[15]", "result": 22, "unit": "µM"}]}
{"smiles": "C#CCNC(=O)C(=O)c1cc(Br)ccc1NC(=O)CCl", "values": [{"measurement": "inhibition", "setting": "Pseudomonas aeruginosa [16]", "result": 66.5, "unit": "%"}]}
{"smiles": "O=C(O)/C=C/c1ccccc1", "note": "[CINNAMIC ACID]", "values": [{"measurement": "IC50", "setting": "[17]", "result": 1.68, "unit": "mM"}]}
{"smiles": "O=C1C[C@@H](c2ccc(O)c(O)c2)Oc2cc(O)cc(O)c21", "note": "[ERIODICTYOL]", "values": [{"measurement": "IC50", "setting": "[4]", "result": 4, "unit": "mM"}, {"measurement": "IC50", "setting": "[5]", "result": 4, "unit": "mM"}]}
{"smiles": "CC1=CC(=O)C(C(C)C)=CC1=O", "note": "[THYMOQUINONE]", "values": [{"measurement": "IC50", "setting": "[11]", "result": 130, "unit": "µM"}]}
{"smiles": "Oc1cc(O)c2c(c1)O[C@H](c1ccc(O)c(O)c1)[C@@H](O)C2", "note": "[CIANIDANOL]", "values": [{"measurement": "IC50", "setting": "[9]", "result": 4, "unit": "mM"}]}
{"smiles": "O=C(OC[C@H]1O[C@@H](OC(=O)c2cc(O)c(O)c(OC(=O)c3cc(O)c(O)c(O)c3)c2)[C@H](OC(=O)c2cc(O)c(O)c(OC(=O)c3cc(O)c(O)c(O)c3)c2)[C@@H](OC(=O)c2cc(O)c(O)c(OC(=O)c3cc(O)c(O)c(O)c3)c2)[C@@H]1OC(=O)c1cc(O)c(O)c(OC(=O)c2cc(O)c(O)c(O)c2)c1)c1cc(O)c(O)c(OC(=O)c2cc(O)c(O)c(O)c2)c1", "note": "[TANNIC ACID]", "values": [{"measurement": "IC50", "setting": "[11]", "result": 20, "unit": "µM"}]}
{"smiles": "C#CCNC(=O)C(=O)c1ccccc1NC(=O)CCl", "values": [{"measurement": "inhibition", "setting": "Escherichia coli [2]", "result": 71.5, "unit": "%"}, {"measurement": "inhibition", "setting": "Pseudomonas aeruginosa [16]", "result": 66.9, "unit": "%"}]}
{"smiles": "O=c1c(O)c(-c2ccc(O)c(O)c2)oc2cc(O)cc(O)c12", "note": "[QUERCETIN]", "values": [{"measurement": "IC50", "setting": "[18]", "result": 20, "unit": "µM"}]}
{"smiles": "O=C1C[C@@H](c2ccc(O)cc2)Oc2cc(O)cc(O)c21", "note": "[NARINGENIN]", "values": [{"measurement": "IC50", "setting": "[4]", "result": 4, "unit": "mM"}, {"measurement": "IC50", "setting": "[5]", "result": 4, "unit": "mM"}]}
{"smiles": "O=C/C=C/c1ccccc1", "note": "[CINNAMALDEHYDE]", "values": [{"measurement": "IC50", "setting": "[9]", "result": 5.9, "unit": "mM"}]}
{"smiles": "C[C@H]1CC[C@]2(C)C(=O)CCC[C@H]2[C@]1(C)CC1=C(O)C(=O)CC1=O", "values": [{"measurement": "TIME", "setting": "[6]", "result": 0.667, "unit": "h"}]}
{"smiles": "Cc1ccc2c(c1)C(=O)C(=O)N2C(=O)CCl", "values": [{"measurement": "inhibition", "setting": "Pseudomonas aeruginosa [16]", "result": 71.2, "unit": "%"}]}
{"smiles": "C#CCNC(=O)C(=O)c1cc(Cl)ccc1NC(=O)CCl", "values": [{"measurement": "inhibition", "setting": "Pseudomonas aeruginosa [1]", "result": 71.5, "unit": "%"}, {"measurement": "inhibition", "setting": "Escherichia coli [2]", "result": 72.1, "unit": "%"}, {"measurement": "inhibition", "setting": "Escherichia coli [3]", "result": 90.8, "unit": "%"}]}
{"smiles": "O=C(O)c1ccccc1O", "note": "[SALICYLIC ACID]", "values": [{"measurement": "IC50", "setting": "[17]", "result": 1.44, "unit": "mM"}]}
{"smiles": "CCCCCCCCCNC(=O)CC(=O)c1ccco1", "values": [{"measurement": "Activity", "setting": "Pseudomonas aeruginosa [19]", "result": 96, "unit": "%"}, {"measurement": "IC50", "setting": "[20]", "result": 1200, "unit": "nM"}]}
{"smiles": "O=C(N[C@H]1CCOC1=O)SCc1ccc([N+](=O)[O-])cc1", "values": [{"measurement": "IC50", "setting": "[7]", "result": 23, "unit": "µM"}]}
{"smiles": "C=C1CCC[C@H]2[C@](C)(Cc3c(O)c(OC(C)=O)cc(OC)c3OC(C)=O)[C@@H](C)CC[C@]12C", "values": [{"measurement": "TIME", "setting": "[6]", "result": 1, "unit": "h"}]}
